Assay results reported in ChEMBL document CHEMBL4219089, “Targeting RORs nuclear receptors by novel synthetic steroidal inverse agonists for autoimmune disorders” (Bioorg Med Chem, 2018).

Legend:
HEK293 [1] = assay: Cell cycle arrest in HEK293 cells at 10 to 20 uM after 24 hrs by propidium iodide staining based flow cytometric method; settings: human, hek293, 24 h
HepG2 [2] = assay: Cytotoxicity against human HepG2 cells assessed as effect on cell viability at 6.25 to 50 uM after 24 hrs by MTT assay; type: cell-based; settings: hepg2, 24 h
HepG2 [3] = assay: Cell cycle arrest in human HepG2 cells at 10 to 20 uM after 24 hrs by propidium iodide staining based flow cytometric analysis; type: ADME; settings: hepg2, 24 h
HEK293 [4] = assay: Cell cycle arrest in HEK293 cells expressing GAL4-fused RORgammat at 10 to 20 uM after 24 hrs by propidium iodide staining based flow cytometric method; type: ADME; settings: human, hek293, 24 h
HEK293 [5] = assay: Cytotoxicity against HEK293 cells expressing GAL4-fused RORgammat assessed as effect on cell viability at 10 to 20 uM after 24 hrs by MTT assay; type: cell-based; settings: human, hek293, 24 h
HEK293 [6] = assay: Cytotoxicity against HEK293 cells assessed as effect on cell viability at 10 to 20 uM after 24 hrs by MTT assay; type: cell-based; settings: human, hek293, 24 h
[7] = target: T1, Nuclear receptor ROR-gamma (Homo sapiens) (UniProt P51449); assay: (§1) Inverse agonist activity at Gal4-fused RORgammat LBD (unknown origin) expressed in HEK293 cells measured after 48 hrs post transfection by dual-luciferase reporter gene assay; type: cell-based
T1 sequence (whole entry): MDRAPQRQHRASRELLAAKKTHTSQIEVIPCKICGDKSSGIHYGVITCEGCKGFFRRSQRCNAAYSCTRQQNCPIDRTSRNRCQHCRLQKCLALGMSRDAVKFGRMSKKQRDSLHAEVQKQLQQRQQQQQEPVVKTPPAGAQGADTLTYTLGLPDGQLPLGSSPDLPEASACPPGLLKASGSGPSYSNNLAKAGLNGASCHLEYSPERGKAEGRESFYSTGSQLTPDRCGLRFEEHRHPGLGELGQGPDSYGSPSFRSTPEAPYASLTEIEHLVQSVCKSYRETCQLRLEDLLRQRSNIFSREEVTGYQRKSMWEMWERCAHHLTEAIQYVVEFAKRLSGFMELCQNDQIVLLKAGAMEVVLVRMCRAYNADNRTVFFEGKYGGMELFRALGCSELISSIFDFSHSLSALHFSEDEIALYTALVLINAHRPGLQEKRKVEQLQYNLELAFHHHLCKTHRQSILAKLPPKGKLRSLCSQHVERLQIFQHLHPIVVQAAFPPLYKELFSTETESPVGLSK

[8] = target: T2, Nuclear receptor ROR-gamma (Homo sapiens, UniProt P51449); assay: as §1; type: cell-based
T2 sequence (P51449 whole entry): T1 sequence (whole entry)

Estrogen receptor [9] = target: T3, Estrogen receptor (Homo sapiens, UniProt P03372); assay: Estrogenic activity at estrogen receptor in human MCF7 cells assessed as increase in GREB1 gene expression at 2 uM after 24 hrs by qRT-PCR analysis; type: ADME, cell-based; settings: mcf7, 24 h
T3 sequence (P03372 whole entry): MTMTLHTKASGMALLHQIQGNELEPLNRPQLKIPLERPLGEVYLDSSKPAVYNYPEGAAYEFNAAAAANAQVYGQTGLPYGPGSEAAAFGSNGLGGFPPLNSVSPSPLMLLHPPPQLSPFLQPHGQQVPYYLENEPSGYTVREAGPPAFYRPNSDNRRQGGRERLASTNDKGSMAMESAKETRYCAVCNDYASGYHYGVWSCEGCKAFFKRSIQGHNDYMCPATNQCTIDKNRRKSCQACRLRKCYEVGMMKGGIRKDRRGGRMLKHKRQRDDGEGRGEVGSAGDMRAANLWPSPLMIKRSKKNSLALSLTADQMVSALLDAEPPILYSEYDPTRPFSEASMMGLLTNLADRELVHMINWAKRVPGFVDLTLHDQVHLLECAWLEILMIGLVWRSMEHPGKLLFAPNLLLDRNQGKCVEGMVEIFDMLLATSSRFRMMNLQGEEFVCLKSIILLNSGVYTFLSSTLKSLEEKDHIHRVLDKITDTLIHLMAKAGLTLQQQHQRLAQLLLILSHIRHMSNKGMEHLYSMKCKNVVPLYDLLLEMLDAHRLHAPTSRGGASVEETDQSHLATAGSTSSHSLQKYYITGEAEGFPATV

Estrogen receptor [10] = target: T3, Estrogen receptor; assay: Estrogenic activity at estrogen receptor in human MCF7 cells assessed as increase in CXCL12 gene expression at 2 uM after 24 hrs by qRT-PCR analysis; type: ADME, cell-based; settings: mcf7, 24 h
HepG2 [11] = assay: Cytotoxicity against human HepG2 cells assessed as effect on cell viability at 6.25 uM after 24 hrs by MTT assay; type: cell-based; settings: hepg2, 24 h
HepG2 [12] = assay: Cytotoxicity against human HepG2 cells assessed as effect on cell viability at 25 to 50 uM after 24 hrs by MTT assay; type: cell-based; settings: hepg2, 24 h

Row | Structure (SMILES) | Activity (HEK293 [1]) | Activity (HepG2 [2]) | Activity (HepG2 [3]) | Activity (HEK293 [4]) | Activity (HEK293 [5]) | Activity (HEK293 [6]) | Activity [7] | IC50 [8] | Activity (Estrogen receptor [9]) | Activity (Estrogen receptor [10]) | Activity (HepG2 [11]) | Activity (HepG2 [12])
1 | C[C@]12CC[C@@H]3c4cc(-c5cccc6c5oc5ccccc56)c(O)cc4CC[C@H]3[C@@H]1CC(C(=O)O)C2O (stereo not given in full) | Non-Toxic | Non-Toxic | Non-Toxic | Non-Toxic | Non-Toxic | Non-Toxic | Dose-dependent effect | 4.7 µM | – | – | – | –
2 | COc1cc2c(cc1C13CC4CC(CC(C4)C1)C3)[C@H]1CC[C@]3(C)C=C(C(=O)O)C[C@H]3[C@@H]1CC2 | Non-Toxic | Non-Toxic | Non-Toxic | Non-Toxic | Non-Toxic | Non-Toxic | Dose-dependent effect | 6.8 µM | Not Active | Not Active | – | –
3 | C[C@]12CC[C@@H]3c4cc(-c5ccccc5)c(O)cc4CC[C@H]3[C@@H]1CC(C(=O)O)C2O (stereo not given in full) | – | – | – | – | – | – | – | – | – | – | Toxic | –
4 | C[C@]12CC[C@@H]3c4cc(-c5ccc(-c6ccccc6)cc5)c(O)cc4CC[C@H]3[C@@H]1CC(C(=O)O)C2O (stereo not given in full) | – | – | – | – | – | – | – | – | – | – | Toxic | –
5 | C[C@@]12C=C(C(=O)O)C[C@H]1[C@@H]1CCc3cc(O)c(C(=O)c4ccccc4)cc3[C@H]1CC2 | Non-Toxic | – | Non-Toxic | Non-Toxic | Non-Toxic | Non-Toxic | Dose-dependent effect | 4.4 µM | Not Active | Not Active | – | Toxic
6 | C[C@@]12C=C(C(=O)O)C[C@H]1[C@@H]1CCc3cc(O)c(C45CC6CC(CC(C6)C4)C5)cc3[C@H]1CC2 | Non-Toxic | Non-Toxic | Non-Toxic | Non-Toxic | Non-Toxic | Non-Toxic | Dose-dependent effect | 6.5 µM | Active | Active | – | –
